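Compound exposure: 48 hours, 5 concentrations, 96-well plates. GI50 marks 50% less growth.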 The source made the active and inactive calls. Cut-off read from the data, not from the text of the source: active = GI50 up to about 1.1 µM and inactive = higher.
Legend:
Assay in all cases: DTP human tumour cell line panel, 48 h
U-251 = tested on: U-251
UO-31 = tested on: UO-31
SNB-75 = tested on: SNB-75
SK-MEL-28 = tested on: SK-MEL-28
MOLT-4 = tested on: MOLT-4
OVCAR-5 = tested on: OVCAR-5
EKVX = tested on: EKVX
SK-MEL-2 = tested on: SK-MEL-2
K562 = tested on: K562
NCI-H522 = tested on: NCI-H522
Hs-578T = tested on: Hs-578T
SK-MEL-5 = tested on: SK-MEL-5
IGROV-1 = tested on: IGROV-1
MDA-MB-435 = tested on: MDA-MB-435
SNB-19 = tested on: SNB-19
OVCAR-8 = tested on: OVCAR-8
RXF 393 = tested on: RXF 393
HL-60 = tested on: HL-60
UACC-257 = tested on: UACC-257
TK-10 = tested on: TK-10

Structure (SMILES) | GI50 (U-251) | GI50 (UO-31) | GI50 (SNB-75) | GI50 (SK-MEL-28) | GI50 (MOLT-4) | GI50 (OVCAR-5) | GI50 (EKVX) | GI50 (SK-MEL-2) | GI50 (K562) | GI50 (NCI-H522) | GI50 (Hs-578T) | GI50 (SK-MEL-5) | GI50 (IGROV-1) | GI50 (MDA-MB-435) | GI50 (SNB-19) | GI50 (OVCAR-8) | GI50 (RXF 393) | GI50 (HL-60) | GI50 (UACC-257) | GI50 (TK-10)
O=C(CSc1nc2ccc(I)cc2c(=O)n1Cc1ccccc1)Nc1ccccc1 | 14.3 µM (inactive) | 0.331 µM (active) | 2.94 µM (inactive) | 35.6 µM (inactive) | > 100 µM (inactive) | 30.6 µM (inactive) | 3.55 µM (inactive) | 13.8 µM (inactive) | 39.5 µM (inactive) | 16 µM (inactive) | 3.65 µM (inactive) | 32.1 µM (inactive) | 25.2 µM (inactive) | > 100 µM (inactive) | 17.5 µM (inactive) | 6.75 µM (inactive) | 10 µM (inactive) | > 100 µM (inactive) | – | –
CN1C(=O)C(O)C[C@@H]1c1ccccc1 (stereo partly drawn) | > 100 µM (inactive) | > 100 µM (inactive) | > 100 µM (inactive) | > 100 µM (inactive) | > 100 µM (inactive) | > 100 µM (inactive) | > 100 µM (inactive) | > 100 µM (inactive) | – | > 100 µM (inactive) | > 100 µM (inactive) | > 100 µM (inactive) | > 100 µM (inactive) | > 100 µM (inactive) | > 100 µM (inactive) | > 100 µM (inactive) | > 100 µM (inactive) | > 100 µM (inactive) | > 100 µM (inactive) | > 100 µM (inactive)
CC(C)CC(N)C(=O)O (stereo not drawn) | > 100 µM (inactive) | > 100 µM (inactive) | > 100 µM (inactive) | > 100 µM (inactive) | > 100 µM (inactive) | – | – | > 100 µM (inactive) | > 100 µM (inactive) | > 100 µM (inactive) | > 100 µM (inactive) | > 100 µM (inactive) | > 100 µM (inactive) | > 100 µM (inactive) | > 100 µM (inactive) | > 100 µM (inactive) | > 100 µM (inactive) | > 100 µM (inactive) | > 100 µM (inactive) | > 100 µM (inactive)
COC(=O)C(CCSc1ccccc1)C(=O)OC | > 100 µM (inactive) | > 100 µM (inactive) | > 100 µM (inactive) | > 100 µM (inactive) | > 100 µM (inactive) | > 100 µM (inactive) | > 100 µM (inactive) | > 100 µM (inactive) | – | 93.8 µM (inactive) | 1.58 µM (inactive) | > 100 µM (inactive) | > 100 µM (inactive) | > 100 µM (inactive) | – | > 100 µM (inactive) | > 100 µM (inactive) | 79.3 µM (inactive) | > 100 µM (inactive) | –
COc1cc2oc(-c3ccc(O)cc3)cc(=O)c2c(OC)c1OC | > 100 µM (inactive) | > 100 µM (inactive) | 18.4 µM (inactive) | > 100 µM (inactive) | > 100 µM (inactive) | > 100 µM (inactive) | > 100 µM (inactive) | – | > 100 µM (inactive) | > 100 µM (inactive) | > 100 µM (inactive) | > 100 µM (inactive) | > 100 µM (inactive) | > 100 µM (inactive) | > 100 µM (inactive) | > 100 µM (inactive) | > 100 µM (inactive) | > 100 µM (inactive) | > 100 µM (inactive) | > 100 µM (inactive)
COc1ccccc1Cn1[nH]c(=O)c2cc([N+](=O)[O-])ccc21 | – | > 100 µM (inactive) | 25.8 µM (inactive) | > 100 µM (inactive) | > 100 µM (inactive) | > 100 µM (inactive) | > 100 µM (inactive) | 24.4 µM (inactive) | 51.6 µM (inactive) | > 100 µM (inactive) | 23.7 µM (inactive) | > 100 µM (inactive) | 43.5 µM (inactive) | 43.9 µM (inactive) | 61.2 µM (inactive) | > 100 µM (inactive) | 25.8 µM (inactive) | 86.5 µM (inactive) | > 100 µM (inactive) | > 100 µM (inactive)
CCOC(=O)c1nc2ccc(C(F)(F)F)cc2nc1NCc1ccc(F)cc1 | 35.7 µM (inactive) | 29 µM (inactive) | 91.4 µM (inactive) | 44 µM (inactive) | 42.8 µM (inactive) | 64.3 µM (inactive) | 37.8 µM (inactive) | 59.4 µM (inactive) | 24.5 µM (inactive) | 18.1 µM (inactive) | 21.5 µM (inactive) | – | 26.5 µM (inactive) | 31.9 µM (inactive) | 32.6 µM (inactive) | 30.9 µM (inactive) | 37.2 µM (inactive) | 29.6 µM (inactive) | 27.5 µM (inactive) | 27.9 µM (inactive)
C/C(=N\NC(=[Se])N1CCN(c2ccccn2)CC1)c1ccccn1 | 0.00925 µM (active) | 4.02 µM (inactive) | 4.7 µM (inactive) | 10 µM (inactive) | 2.58 µM (inactive) | 5.97 µM (inactive) | – | 0.238 µM (active) | 0.0448 µM (active) | 0.125 µM (active) | 0.188 µM (active) | 0.0475 µM (active) | 0.01 µM (active) | 2.06 µM (inactive) | 1.14 µM (inactive) | 0.01 µM (active) | 0.0352 µM (active) | 0.0432 µM (active) | 0.01 µM (active) | 7.38 µM (inactive)

— ChEMBL document CHEMBL1201862, “PubChem BioAssay data set” (2004)
